Where a chain is given by its changes, count along the chain named. “Also recorded” adds a separate entry of the source.
Assays:
prostate glands of mice = test: Prostate weight in treated male mice; type: in vivo; conditions: 5 times per week for four weeks, BiC 100 mg/kg PO, PP 1 mg/kg IP, or the combination
Description: FIG. 7. […] As a positive control, nine mice were treated with castration for four weeks. Prostate glands were harvested and wet weights determined. […] Error bars represent the standard error of the mean (S.E.M.).
Animals were treated 5 times per week for four weeks. At the end of the study period, animals were sacrificed and prostate tissue weighed. After weighing, the tissue was divided in half for pathological and genetic studies. […] (FIG. 7).

[1] = test system: endogenous AR-regulated gene expression, LAPC4 cells; test: qRT-PCR of androgen-responsive genes in LAPC4 cells; type: cell-based, human; conditions: No DHT = 1, 3 nM DHT alone or with 1 uM BIC, 100 nM PP or 100 nM HH
Description: (§1) LAPC4 and LNCaP cells were grown in the presence or absence of 3 nM DHT in charcoal-stripped media, with or without the inhibitors. RNA was harvested using an RNAeasy kit (Qiagen) and reverse transcribed (MMLV-RT, Invitrogen). Real-time PCR was carried out on a 7300 Real Time PCR System (Applied Biosystems) using SYBR green as the detecting dye and Rox as the reference dye. The androgen responsive genes kalikrein 3, or PSA (KLK3) [Cleutjens, K. B., et al., Two androgen response regions cooperate in steroid hormone regulated activity of the prostate-specific antigen promoter. J Biol Chem, 1996. 271(11): p. 6379-88; Nelson, P. S., et al., The program of androgen-responsive genes in neoplastic prostate epithelium. Proc Natl Acad Sci USA, 2002. 99(18): p. 11890-5), metalloproteinase 16 (MMP16) (Nelson, P. S., et al., The program of androgen-responsive genes in neoplastic prostate epithelium. Proc Natl Acad Sci USA, 2002. 99(18): p. 11890-5), transmembrane protease serine 2 (TMPRSS2) (Nelson, P. S., et al., The program of androgen-responsive genes in neoplastic prostate epithelium. Proc Natl Acad Sci USA, 2002. 99(18): p. 11890-5; […] Vaarala, M. H., et al., Expression of transmembrane serine protease TMPRSS2 in mouse and human tissues. J Pathol, 2001. 193(1): p. 134-40), FK506-binding immunophilin 51 (FKBP51) (Nelson, P. S., et al., The program of androgen-responsive genes in neoplastic prostate epithelium. Proc Natl Acad Sci USA, 2002. 99(18): p. 11890-5; Amler, L. C., et al., Dysregulated expression of androgen-responsive and nonresponsive genes in the androgen-independent prostate cancer xenograft model CWR22-R1. Cancer Res, 2000. 60(21): p. 6134-41; Velasco, A. M., et al., Identification and validation of novel androgen-regulated genes in prostate cancer. Endocrinology, 2004. 145(8): p. 3913-24; Magee, J. A., et al., Direct, androgen receptor-mediated regulation of the FKBP5 gene via a distal enhancer element. Endocrinology, 2006. 147(1): p. 590-8), G-protein coupled receptor RDC1 homolog, or chemokine orphan receptor 1 (RDC-1) (Nelson, P. S., et al., The program of androgen-responsive genes in neoplastic prostate epithelium. Proc Natl Acad Sci USA, 2002. 99(18): p. 11890-5), NK homeobox family member 3 (Nk×3.1) (Nelson, P. S., et al., The program of androgen-responsive genes in neoplastic prostate epithelium. Proc Natl Acad Sci USA, 2002. 99(18): p. 11890-5; Bieberich, C. J., et al., Prostate-specific and androgen-dependent expression of a novel homeobox gene. J Biol Chem, 1996. 271(50): p. 31779-82; […]) were all normalized to the transcription of the housekeeping ribosomal gene (RPL19). All samples were done in triplicate and separately normalized.

[2] = test system: endogenous AR-regulated gene expression, LNCaP cells; test: qRT-PCR of androgen-responsive genes in LNCaP cells; type: cell-based, human; conditions: No DHT = 1, 3 nM DHT alone or with 1 uM BIC, 100 nM PP or 100 nM HH
Description: as §1

[3] = target: T1, endogenous wild-type AR, LAPC4 cells (Homo sapiens, UniProt P10275); test: PSA-luciferase reporter assay in LAPC4 cells with DHT; type: cell-based; conditions: 3 nM DHT
T1 construct: that each express endogenous AR; endogenous in cells; host or cells: LAPC4
T1 sequence (P10275 1-920): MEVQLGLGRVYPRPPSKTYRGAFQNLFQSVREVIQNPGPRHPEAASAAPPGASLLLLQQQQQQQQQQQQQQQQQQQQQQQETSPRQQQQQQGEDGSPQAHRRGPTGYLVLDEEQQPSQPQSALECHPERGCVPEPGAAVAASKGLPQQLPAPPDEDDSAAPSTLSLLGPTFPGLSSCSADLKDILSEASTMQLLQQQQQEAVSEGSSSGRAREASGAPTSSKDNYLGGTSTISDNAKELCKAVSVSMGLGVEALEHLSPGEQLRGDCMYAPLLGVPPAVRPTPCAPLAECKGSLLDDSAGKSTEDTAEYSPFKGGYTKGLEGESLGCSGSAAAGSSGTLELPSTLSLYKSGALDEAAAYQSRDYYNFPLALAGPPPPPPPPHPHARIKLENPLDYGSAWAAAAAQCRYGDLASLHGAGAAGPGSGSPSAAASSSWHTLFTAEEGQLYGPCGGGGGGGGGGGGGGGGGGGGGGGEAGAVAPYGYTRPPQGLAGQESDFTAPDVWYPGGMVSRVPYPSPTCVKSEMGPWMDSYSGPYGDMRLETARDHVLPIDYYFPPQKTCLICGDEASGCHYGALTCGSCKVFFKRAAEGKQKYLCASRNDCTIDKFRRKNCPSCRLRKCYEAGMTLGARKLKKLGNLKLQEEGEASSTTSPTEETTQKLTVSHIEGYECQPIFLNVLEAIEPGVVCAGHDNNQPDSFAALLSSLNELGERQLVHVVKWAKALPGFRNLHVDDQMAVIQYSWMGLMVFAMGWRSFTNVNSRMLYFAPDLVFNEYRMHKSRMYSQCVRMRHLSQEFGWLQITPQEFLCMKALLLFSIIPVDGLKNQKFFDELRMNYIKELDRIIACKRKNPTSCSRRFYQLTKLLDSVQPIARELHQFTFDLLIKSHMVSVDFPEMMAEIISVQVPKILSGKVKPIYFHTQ
Description: (§2) Cells were transfected with two reporter plasmids, a PSA-luciferase construct (androgen responsive), and an SV40-renilla luciferase construct as an internal control. The following day, the cells were split and drugs added in the presence of 3 nM DHT. Luciferase production was measured the following day (Dual luciferase assay kit, Promega).
(§3) Synergism can be defined as a combination index of less than one, using the non-exclusive assumption described by Chou et al. (Chou, T. C. and P. Talalay, Quantitative analysis of dose-effect relationships: the combined effects of multiple drugs or enzyme inhibitors. Adv Enzyme Regul, 1984. 22: p. 27-55).

[4] = target: T2, endogenous AR with a mutation (T877A), LNCaP cells (Homo sapiens, UniProt P10275, T878A); test: PSA-luciferase reporter assay in LNCaP cells with DHT; type: cell-based; conditions: for IC50: LNCaP cells, 3 nM DHT
T2 construct: that each express endogenous AR; endogenous in cells; host or cells: LNCaP
T2 sequence (P10275 1-920 T878A): T1 sequence (P10275 1-920) with T878A
Description: as §2, §3

LNCaP cells = test: Cell proliferation (DNA content, DAPI), LNCaP; type: cell-based, human; conditions: 3 nM DHT, seven days, PP 100 nM, HH 100 nM, BiC 1 μM
Text: (§4) LN-AR cells were created by retroviral infection of a high-expressing AR vector into LNCaP cells, and proliferate independent of androgen in cell culture, unlike their parental line (Chen, C. D., et al., Molecular determinants of resistance to antiandrogen therapy. Nat Med, 2004. 10(1): p. 33-9). HEK293 cells were used as a control. Cells were transferred to charcoal-stripped media two days before they were split and plated in quadruplicate at a density of approximately 20,000 cells/well in 48-well plates. […] Media were changed every day, using a single preparation to ensure consistent compound concentrations. Proliferation was determined by measuring the DNA content of the cells in each well. Each day, the cells in four wells were fixed in 100% cold methanol, followed by staining for 5 min at RT with 0.2 ng/mL 4′,6-diamidino-2-phenylindole (DAPI) in PBS. The cells were washed once in PBS, then read on a fluorescence plate reader using 365/439 excitation/emission wavelengths. LAPC4 and LNCaP cells proliferated to a much greater degree in the presence of DHT, while LN-AR cells proliferated in the presence and absence of DHT.

LN-AR cells = test: Cell proliferation (DNA content, DAPI), LN-AR; type: cell-based, human; conditions: seven days, PP 100 nM, HH 100 nM, BiC 1 μM
Text: as §4

LAPC4 cells = test: Cell proliferation (DNA content, DAPI), LAPC4; type: cell-based, human; conditions: LAPC4, 3 nM DHT, seven days; PP 100 nM, HH 100 nM, BiC 1 μM
Text: as §4

HEK293 cells = test: Cell proliferation (DNA content, DAPI), HEK293 control; type: cell-based; conditions: HEK293, seven days; PP 100 nM, HH 100 nM, BiC 1 μM
Text: as §4

## CC(O)(CS(=O)(=O)c1ccc(F)cc1)C(=O)Nc1ccc(C#N)c(C(F)(F)F)c1 (stereo not drawn) [BiC, bicalutamide]
Prostate glands of mice
  Reduction of prostate weight: 35%

## C[C@]12CCC(=O)C[C@@H]1CC[C@@H]1[C@@H]2CC[C@]2(C)[C@@H](O)CC[C@@H]12 [DHT, dihydrotestosterone]
[1]
  FKBP51 transcription (normalized to RPL19): 21.4
  KLK3 transcription (normalized to RPL19): 1.97
  MMP16 transcription (normalized to RPL19), androgen-repressed gene: 0.71
  Nkx3.1 transcription (normalized to RPL19): 1.08
  RDC1 transcription (normalized to RPL19), androgen-repressed gene: 0.63
  TMPRSS2 transcription (normalized to RPL19): 1.13
[2]
  FKBP51 transcription (normalized to RPL19): 2.15
  KLK3 transcription (normalized to RPL19): 1.89
  MMP16 transcription (normalized to RPL19), androgen-repressed gene: 0.61
  Nkx3.1 transcription (normalized to RPL19): 2.00
  RDC1 transcription (normalized to RPL19), androgen-repressed gene: 0.66
  TMPRSS2 transcription (normalized to RPL19): 3.70

## O=c1ccc2cc(O[C@@H]3O[C@H](CO)[C@@H](O)[C@H](O)[C@H]3O)c(O)cc2o1 [Esculin]
[3]
  IC50: 831 nM
[4]
  IC50: 62200 nM

## COc1ccc2c3c([nH]c2c1)C(C)=NCC3 [Harmaline]
[4]
  IC50: 1190 nM

## COc1ccc2c(c1)[nH]c1c(C)nccc12 [Harmine]
[3]
  IC50: 80 nM
[4]
  IC50: 1560 nM

## CC(C)(O)C(=O)Nc1ccc([N+](=O)[O-])c(C(F)(F)F)c1 [OH-F, hydroxy-flutamide, reference compound]
[4]; LNCaP, DHT titrated, moderate dose of each inhibitor
  Mode of antagonism: effect on DHT dose-response of PSA-luciferase: DHT overcame the inhibitory effect; also recorded: consistent with a competitive antagonist

## Cc1cc(/C=C/c2ccc3cc(N(C)C)ccc3[n+]2C)c(C)n1-c1ccccc1 [PP, pyrvinium pamoate]
Prostate glands of mice
  Reduction of prostate weight: did not produce a statistically significant effect; also recorded: did not significantly reduce prostate size
LNCaP cells
  Inhibition of cell growth: able to inhibit the growth of all four cell lines; also recorded: exhibited growth-inhibitory properties
LN-AR cells
  Inhibition of androgen-independent cell growth: able to inhibit the growth of all four cell lines; also recorded: blocked growth
LAPC4 cells
  Inhibition of cell growth: able to inhibit the growth of all four cell lines
HEK293 cells
  Non-specific growth inhibition of control cells: Neither compound exhibited non-specific growth inhibition

## COc1cc2ccc(=O)oc2cc1O [Scopoletin]
[3]
  IC50: 1380 nM
[4]
  IC50: 604000 nM

## Harman
[4]
  IC50: 380 nM

From patent publication US8119660B2, “Small-molecule inhibitors of the androgen receptor” (The Regents of the University of California, priority 2007, dated 2012)
